Literature values as cited in patent US4542021A, “Antitumor compositions for non-injection administration” (Yamasa Shoyu Kabushiki Kaisha, priority 1978, dated 1985).

Conditions: in combination with a cytidinedeaminase inhibitor such as tetrahydrouridine; cited from earlier work

## Nc1ccn([C@@H]2O[C@H](CO)[C@@H](O)[C@@H]2O)c(=O)n1 [ara-C, 1-β-D-arabinofuranosyl cytosine]
  effectiveness of oral administration: effective in combination with a cytidinedeaminase inhibitor such as tetrahydrouridine
